Data reported in PMC8584229, “Comparative Antiseizure Analysis of Diverse Natural Coumarin Derivatives in Zebrafish” (International Journal of Molecular Sciences, 2021).
Read-outs that look alike come from different tables or passages of the source.

Columns and labels:
[1] = tested on: PTZ-induced seizure-like behavior (locomotor activity) of zebrafish larvae; test: Larval zebrafish PTZ seizure model, locomotor analysis (behavioral antiseizure activity); type: in vivo, zebrafish (Danio rerio); settings: for antiseizure activity in the locomotor assay (in words) / lowered seizure-like behavior / decrease of PTZ-induced locomotor activity / decrease of seizure-like behavior / lowered PTZ-induced locomotion: 20 mM PTZ; for antiseizure activity in the locomotor assay (in words): up to MTC; for lowered seizure-like behavior: abstract summary, highest effect, 18 h pre-incubation; for decrease of PTZ-induced locomotor activity: range over all test concentrations (MTC and 2-, 4-, 8-fold dilutions)
Procedure: The effect of different concentrations of test compounds was explored on the locomotor behavior of larvae exposed to the GABA-antagonist PTZ. All compounds were tested at four concentrations—the maximum tolerated concentration (MTC) and two-fold, four-fold, and eight-fold dilutions of the MTC. […] In all experiments, as expected, the positive control VPA (1 mM) decreased seizure-like behavior (i.e., PTZ-induced elevated locomotor activity) with an average (±SD) of 44 ± 34%. […] The antiseizure effect depended on either the type of coumarin or the concentration.
Adult zebrafish (Danio rerio) stocks of the AB strain were maintained at 28.5 °C, on a 14/10 h light/dark cycle under standard aquaculture conditions, and fertilized eggs were collected via natural spawning. Embryos were reared under standard light/dark conditions in embryo medium (1.5 mM HEPES, pH 7.1–7.3, 17.4 mM NaCl, 0.21 mM KCl, 0.12 mM MgSO4, 0.18 mM Ca(NO3)2, and 0.6 μM methylene blue) in an incubator at 28.5 °C. For all measurements, 7-days post-fertilization (dpf) larvae were used, which were treated at 6 dpf. The zebrafish experiments described here were approved by the Local Ethics Committee in Lublin (license no: 109/2018), the Ethics Committee of the University of Leuven (approval number 023/2017), and the Belgian Federal Department of Public Health, Food Safety & Environment (approval number LA1210199). All experiments complied with the EU Directive 2010/63/EU for animal experiments.
All compounds were dissolved in dimethyl sulfoxide (DMSO) and diluted in embryo medium to achieve a final DMSO concentration of 1% v/v. Embryo medium prepared with DMSO to a final concentration of 1% v/v served as a vehicle (VHC) control. PTZ (40 mM) was dissolved in embryo medium. The control anticonvulsant used in this study was VPA.
Six-dpf larvae were treated with VHC (embryo medium (1% DMSO)), VPA (1 mM), or tested compound, in 100 µL volume for 18 h, in individual wells of a 96-well plate at 28.5 °C in the dark. Larvae were allowed to habituate for 5 min in a dark chamber of an automated tracking device (ZebraBox system, Viewpoint, Lyon, France). Then, 100 µL of embryo medium or 100 µL of a 40 mM PTZ solution was added to obtain a final concentration of 20 mM [33] and the locomotor activity was measured to evaluate seizure intensity. The total locomotor activity was quantified using ZebraLab software (Viewpoint, Lyon, France). Total locomotor activity was expressed as total distance moved. All tracking experiments were performed at least in triplicate.
(§1) All statistical analyses were performed using GraphPad Prism 5 or 7 software (GraphPad Software, Inc., San Diego, CA, USA). The locomotor activity of zebrafish larvae and electrophysiological antiseizure analysis was evaluated using one-way ANOVA followed by Dunnett’s multiple comparisons test. Values were presented as lardist sum ± standard error of the mean (SEM) or normalized PSD (%) ± standard error of the mean (SEM). Lardist is large movement distance (>6 mm/s), measured in millimeters. Significance levels: * p ≤ 0.05, ** p ≤ 0.01, and *** p ≤ 0.001.

[2] = tested on: maximal electroshock-induced seizures; settings: cited from earlier work; for ED50 of classic anticonvulsant alone: without umbelliferone
[3] = tested on: seizure-related locomotor activity of zebrafish; parameters: method as in PMID 30668376; settings: cited from earlier work
[4] = tested on: PTZ-induced epileptiform activity in the zebrafish larval optic tectum; test: Local field potential recordings from the optic tectum, power spectral density analysis; type: in vivo, zebrafish (Danio rerio); settings: MTC, 18 h incubation; 20 mM PTZ; 20–90 Hz band
Procedure: To further investigate the results of the behavioral study for all eight selected compounds, local field potential (LFP) measurements were employed. Zebrafish larvae were incubated with the compounds at their MTC for 18 h in darkness and the epileptiform activity was measured in the zebrafish larval optic tectum. A significant reduction in larvae with PTZ-induced epileptiform activity was observed, in comparison to PTZ-treated controls, for all compounds except nodakenetin (Figure 3).
For the rapid, objective, and automated analysis of the LFP recordings, power spectral density (PSD) analysis was performed. This methodology was previously developed and used for zebrafish electrophysiology. It relies on the Welch’s method of averaging the modified periodograms with a 512-point fast Fourier transformation with 80% overlapping 100 sample (100 ms) long segments and a Hamming window. PSDs were estimated for each LFP recording over each 10 Hz frequency band, ranging from 0 to 160 Hz. All examined furanocoumarins at the MTC concentration ameliorated the excitatory effect of preincubation with PTZ. Oxypeucedanin (1), oxypeucedanin hydrate (2), and notopterol (3) decreased normalized PSD per larva to a similar level with 83–89%. […] Pimpinellin (14, an angular furanocoumarin), daphnoretin (17, a simple coumarin derivative), and hyuganin C (18, a dihydropyranocoumarin) decreased normalized PSD by 81, 88, and 65%, respectively.
Non-invasive local field potential recordings were performed from the optic tectum of 7-dpf zebrafish larvae. Larvae were treated with VHC (embryo medium (1% DMSO)) or compound (MTC) in 100 µL volume (in individual wells of a 96-well plate) in darkness (28 °C) for 18 h before measurement. Prior to the recording, 100 µL of VHC (embryo medium) or 40 mM PTZ (to obtain a final concentration of 20 mM) was added to the well for 15 min. After incubation, the larva was immobilized in 2% low-melting-point agarose (Invitrogen, Carlsbad, CA, USA) and the signal electrode, an electrode inside a blunt soda-glass pipet (1412227, Hilgenberg, Germany), was positioned on the skin covering the optic tectum. Electrophysiological recordings where performed as described before. Automated power spectral density analysis was performed using MATLABR2018b (The MathWorks, Inc., Natick, MA, USA), as described before.
as §1

GABAA receptor = tested on: GABAA receptor; parameters: method as in PMID 21749864; settings: cited from earlier work; for EC50: read-out: EC50 (potentiation of IGABA)

CC(C)=CCCC(C)=CCOc1c2occc2cc2ccc(=O)oc12 [8-geranyloxypsoralen]
antiseizure activity in the locomotor assay (in words) [1]: lack of antiseizure activity

CCC1(c2ccccc2)C(=O)NC(=O)NC1=O [PB, phenobarbital, reference compound]
ED50 of classic anticonvulsant alone ([2]; mice): 35.39 mg/kg

C1CCc2nnnn2CC1 [PTZ, pentylenetetrazole, reference compound]
increase in seizure-like behavior and locomotor activity (lardist sum), average ± SD ([1]; proconvulsant, 20 mM, all experiments): 59 ± 35%

CCCC(CCC)C(=O)O [VPA, valproic acid, reference compound]
decrease of seizure-like behavior (PTZ-induced elevated locomotor activity), average ± SD ([1]; positive control, 1 mM, all experiments): 44 ± 34% | ED50 of classic anticonvulsant alone ([2]; mice): 281.4 mg/kg

CC(C)=CCC/C(C)=C/COc1c2ccoc2cc2oc(=O)ccc12 [bergamottin]
inhibition (antiseizure, locomotor activity) ([3]; most active concentration, 2 µM): 26%

COc1c2ccoc2cc2oc(=O)ccc12 [bergapten]
protective properties in MES test (in words) ([2]; mice): did not show protective properties

COc1c2ccoc2c(OC[C@@H](O)C(C)(C)O)c2oc(=O)ccc12 [byakangelicin]
antiseizure activity in the locomotor assay (in words) [1]: lack of antiseizure activity

COc1c2ccoc2c(OC[C@H]2OC2(C)C)c2oc(=O)ccc12 [byakangelicol]
antiseizure activity in the locomotor assay (in words) [1]: lack of antiseizure activity

COc1cc2cc(Oc3ccc4ccc(=O)oc4c3)c(=O)oc2cc1O [daphnoretin]
lowered seizure-like behavior [1]: 65% | decrease of PTZ-induced locomotor activity [1]: 42–65% | decrease of normalized PSD (PTZ-induced elevation in power spectral density) [4]: 88%

CC1(C)O[C@@H]1COc1c2occc2cc2ccc(=O)oc12 [heraclenin, reference compound]
enhancement of IGABA (GABAA receptor): greater than 20%

CC[C@H](C)C(=O)OC1c2c(ccc3ccc(=O)oc23)OC(C)(C)C1OC(C)=O (stereo partly shown) [hyuganin C]
decrease of seizure-like behavior ([1]; 10 µM): 27% | decrease of seizure-like behavior ([1]; 20 µM): 35% | lowered seizure-like behavior [1]: 35% | decrease of normalized PSD (PTZ-induced elevation in power spectral density) [4]: 65%

CC(C)=CCOc1c2occc2cc2ccc(=O)oc12 [imperatorin]
antiseizure activity in the locomotor assay (in words) [1]: lack of antiseizure activity | raised threshold for electroconvulsions ([2]; 50 mg/kg i.p., mice): 38% | raised threshold for electroconvulsions ([2]; 100 mg/kg i.p., mice): 68% | enhancement of IGABA (GABAA receptor): greater than 20%

CC(C)=CCOc1c2ccoc2cc2oc(=O)ccc12 [isoimperatorin]
enhancement of IGABA (GABAA receptor): greater than 20%

CC(C)(O)[C@H]1Cc2cc3ccc(=O)oc3cc2O1 [nodakenetin]
lowered seizure-like behavior [1]: 29% | decrease of normalized PSD (PTZ-induced elevation in power spectral density) [4]: 26%

CC(C)(O[C@@H]1O[C@H](CO)[C@@H](O)[C@H](O)[C@H]1O)[C@H]1Cc2cc3ccc(=O)oc3cc2O1 [nodakenin]
antiseizure activity in the locomotor assay (in words) [1]: inactive | decrease of normalized PSD (PTZ-induced elevation in power spectral density) [4]: 77%

CC(C)=CC(O)C/C(C)=C/COc1c2ccoc2cc2oc(=O)ccc12 (stereo not shown) [notopterol]
lowered PTZ-induced locomotion ([1]; 2 µM): 54% | lowered PTZ-induced locomotion ([1]; 0.25–1 µM): 35–39% | lowered seizure-like behavior [1]: 54% | decrease of normalized PSD (PTZ-induced elevation in power spectral density) [4]: 83–89%

COc1ccc2ccc(=O)oc2c1CC=C(C)C [osthole]
antiseizure activity in the locomotor assay (in words) [1]: not active | protection of the animals against MES ([2]; 266 and 259 mg/kg i.p., between 15 and 30 min before the test): ~90% | effect on the anticonvulsant activity of CBZ, PB, PHT and VPA on co-administration (in words) ([2]; mice): did not have a significant effect | current in the absence of GABA (in words) (GABAA receptor): neither of them induced a current in the absence of GABA | enhancement of IGABA (GABAA receptor): greater than 20% | EC50 (GABAA receptor): 14 ± 1 µM

CC(C)(O)[C@H](O)COc1c2ccoc2cc2oc(=O)ccc12 [oxypeucedanin hydrate]
lowered seizure-like behavior [1]: 74% | decrease of PTZ-induced locomotor activity [1]: 43–74% | decrease of normalized PSD (PTZ-induced elevation in power spectral density) [4]: 83–89%

CC1(C)O[C@H]1COc1c2ccoc2cc2oc(=O)ccc12 [oxypeucedanin]
lowered seizure-like behavior [1]: 38% | decrease of PTZ-induced locomotor activity [1]: 23–38% | decrease of normalized PSD (PTZ-induced elevation in power spectral density) [4]: 83–89% | protective properties in MES test (in words) ([2]; mice): did not show protective properties | current in the absence of GABA (in words) (GABAA receptor): neither of them induced a current in the absence of GABA | enhancement of IGABA (GABAA receptor): greater than 20% | EC50 (GABAA receptor): 25 ± 8 µM

COc1c2ccoc2c(OCC=C(C)C)c2oc(=O)ccc12 [phellopterin]
antiseizure activity in the locomotor assay (in words) [1]: lack of antiseizure activity | enhancement of IGABA (GABAA receptor): greater than 20%

COc1c(OC)c2occc2c2oc(=O)ccc12 [pimpinellin]
lowered seizure-like behavior [1]: 60% | decrease of normalized PSD (PTZ-induced elevation in power spectral density) [4]: 81% | enhancement of IGABA (GABAA receptor): greater than 20%

O=c1ccc2ccc(O)cc2o1 [umbelliferone, 7-hydroxycoumarin]
antiseizure activity in the locomotor assay (in words) [1]: not active | increase of the electroshock threshold ([2]; 150 mg/kg i.p., 30 min before electroshock): around 37%

COc1c2occc2cc2ccc(=O)oc12 [xanthotoxin, reference compound]
ED50 (anticonvulsant activity) ([2]; administered 60 min before electroconvulsion, mice): 219.1 ± 4.7 mg/kg

lucidafuranocoumarin A
inhibition (antiseizure, locomotor activity) ([3]; 16 µM): 69%
